Results as given in US9247759B2, “Identification of human T2R receptors that respond to bitter compounds that elicit the bitter taste in compositions, and the use thereof in assays to identify compounds that inhibit (block) bitter taste in compositions and use thereof” (SENOMYX, INC., priority 2007, dated 2016).
Where two headings read alike, the source gives them in different places.

What was measured:
hT2R8 [1] = biological target: T1, hT2R8 (Homo sapiens (Human), UniProt Q9NYW2); test: hT2R8 antagonist high-throughput FLIPR assay, stable cell line with G16g44, agonist andrographolide; assay type: cell-based
T1 sequence (Q9NYW2 whole entry): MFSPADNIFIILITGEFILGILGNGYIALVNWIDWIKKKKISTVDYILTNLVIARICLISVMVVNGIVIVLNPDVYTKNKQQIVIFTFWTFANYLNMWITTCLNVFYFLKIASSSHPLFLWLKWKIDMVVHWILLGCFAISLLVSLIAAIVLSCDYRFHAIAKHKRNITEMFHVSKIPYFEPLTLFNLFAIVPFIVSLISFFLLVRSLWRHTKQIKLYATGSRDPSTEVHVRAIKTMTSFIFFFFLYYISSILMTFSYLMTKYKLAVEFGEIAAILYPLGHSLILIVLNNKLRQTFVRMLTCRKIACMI
Procedure, shortened: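 Antagonist screen: compounds co-applied with agonist andrographolide at 200 μM, a dose giving 70–80% of maximal hT2R8 activation. Fluorescence measured by FLIPR in a stable HEK293 line expressing both hT2R8 and the promiscuous G16g44 protein.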

[2] = test system: bitterness of T2R8 specific agonist; test: Taste test with T2R8 specific agonist comparing a control bitter blocker and compound of interest; assay type: in vivo, human; details: antagonist conc. 1
Description: To determine the effectiveness of an individual antagonist, taste tests were performed with a T2R8 specific agonist, the compound of interest and a reference bitter blocker. We have previously described a good hT2R8 antagonist that was proven to have taste effect, Example 4-8 from U.S. Provisional Appl. Ser. No. 60/957,129, filed Aug. 21, 2007: N-(1-((3,5-dimethylisoxazol-4-yl)methyl)-1H-pyrazol-4-yl)benzo[d][1,3]dioxole-5-carboxamide.

[3] = test system: bitter taste of instant coffee; test: 2-alternative forced choice taste test, instant coffee with hT2R8 antagonists; assay type: in vivo, human; details: antagonist 5 μM
Description: Taste tests were performed with hT2R8 antagonists in instant coffee using a 2-alternative forced choice method with a taste panel of 15-20 panelists. Coffee samples with the antagonists were given to the taste panelists together with the same sample without antagonists, the panelists were asked to identify the bitterer sample within the pair.

hT2R14 [4] = biological target: T2, hT2R14 (Homo sapiens (Human), UniProt Q9NYV8); test: hT2R14 antagonist high-throughput FLIPR assay, stable cell line with G16g44, agonist aristolochic acid; assay type: cell-based; details: read-out: IC50 on hT2R14 bitter receptor
T2 sequence (Q9NYV8 whole entry): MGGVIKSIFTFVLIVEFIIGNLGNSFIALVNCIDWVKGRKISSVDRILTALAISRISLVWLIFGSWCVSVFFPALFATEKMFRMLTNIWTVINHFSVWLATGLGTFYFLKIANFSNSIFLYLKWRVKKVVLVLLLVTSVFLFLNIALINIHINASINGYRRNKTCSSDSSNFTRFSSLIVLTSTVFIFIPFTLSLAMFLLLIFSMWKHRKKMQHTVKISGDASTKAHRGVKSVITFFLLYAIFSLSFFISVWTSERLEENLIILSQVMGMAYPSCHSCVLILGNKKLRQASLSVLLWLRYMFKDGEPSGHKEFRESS
Procedure, shortened: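 Compounds were co-applied with 3 μM aristolochic acid, a dose set to reach 70-80% of maximal hT2R14 activation. Read-out was FLIPR fluorescence in a stable HEK293 line co-expressing hT2R14 and G16g44.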

hT2R4 = hT2R4 (Homo sapiens (Human), UniProt Q9NYW5); test: hT2R panel inhibition, transient HEK293 G16g44, agonist Chloroquine pH6.5 5 mM; assay type: cell-based; details: HEK293, compound at 25 μM
Sequence of hT2R4 (Q9NYW5 whole entry): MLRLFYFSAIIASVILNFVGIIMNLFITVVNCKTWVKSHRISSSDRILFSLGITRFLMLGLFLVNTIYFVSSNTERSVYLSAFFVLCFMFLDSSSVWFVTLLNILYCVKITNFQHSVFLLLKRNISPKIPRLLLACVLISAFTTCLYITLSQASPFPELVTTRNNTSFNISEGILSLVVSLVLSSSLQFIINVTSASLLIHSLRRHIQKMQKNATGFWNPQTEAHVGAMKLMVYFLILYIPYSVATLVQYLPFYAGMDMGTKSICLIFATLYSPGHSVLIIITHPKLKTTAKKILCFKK
Procedure, shortened: (§1)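 Compound C tested for reduction of receptor activity evoked by EC80-level bitter agonists, receptor by receptor. Assay cells: HEK293 line stably carrying promiscuous G protein G16g44, transiently transfected with individual human T2Rs.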

hT2R5 = hT2R5 (Homo sapiens (Human), UniProt Q9NYW4); test: hT2R panel inhibition, transient HEK293 G16g44, agonist Picoline 10 mM; assay type: cell-based; details: HEK293, compound at 25 μM
Sequence of hT2R5 (Q9NYW4 whole entry): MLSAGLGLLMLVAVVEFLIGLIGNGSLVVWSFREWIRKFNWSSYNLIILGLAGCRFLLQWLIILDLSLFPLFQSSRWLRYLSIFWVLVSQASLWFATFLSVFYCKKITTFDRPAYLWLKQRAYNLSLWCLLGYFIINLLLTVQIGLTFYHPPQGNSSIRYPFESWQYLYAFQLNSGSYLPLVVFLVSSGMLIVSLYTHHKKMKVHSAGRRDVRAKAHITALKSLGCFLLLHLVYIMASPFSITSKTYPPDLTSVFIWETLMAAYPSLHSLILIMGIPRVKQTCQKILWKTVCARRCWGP
Procedure, shortened: as §1

hT2R7 = hT2R7 (Homo sapiens (Human), UniProt Q9NYW3); test: hT2R panel inhibition, transient HEK293 G16g44, agonist Chloroquine pH6.5 10 mM; assay type: cell-based; details: HEK293, compound at 25 μM
Sequence of hT2R7 (Q9NYW3 whole entry): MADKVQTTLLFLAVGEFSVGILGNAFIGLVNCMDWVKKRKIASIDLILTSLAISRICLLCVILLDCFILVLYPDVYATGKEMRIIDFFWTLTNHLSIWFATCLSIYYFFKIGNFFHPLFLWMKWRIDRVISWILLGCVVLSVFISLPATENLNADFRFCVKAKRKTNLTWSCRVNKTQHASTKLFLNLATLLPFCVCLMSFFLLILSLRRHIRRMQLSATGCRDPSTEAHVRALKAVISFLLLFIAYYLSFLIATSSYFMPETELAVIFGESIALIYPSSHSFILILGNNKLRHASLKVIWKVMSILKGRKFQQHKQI
Procedure, shortened: as §1

hT2R8 [5] = biological target: T1, hT2R8; test: hT2R panel inhibition, transient HEK293 G16g44, agonist Andrographolide 0.5 mM; assay type: cell-based; details: HEK293, compound at 25 μM
Description: Specifically, in order to evaluate the inhibitory selectivity of the Compound C compound, this compound was tested against 22 human T2Rs which were deorphaned by Senomyx. These receptors and the bitter ligands that activate these human T2Rs are reported in earlier patent applications which are incorporated by reference herein. These 22 human T2Rs are hT2R1, 3, 4, 5, 7, 8, 9, 10, 13, 14, 16, 44, 51, 54, 55, 61, 63, 64, 65, 67, 71 and 75. The amino acid and nucleic acid sequences of all of these T2Rs may be found in these earlier patent applications. These human T2Rs were each individually transiently transfected into HEK293 cells that stably express the promiscuous G protein G16g44 and functional assays were effected using these receptors as disclosed in these same patent applications. […] The ligands were used at EC80 concentration levels. The list of bitter ligands utilized and the tested ligand concentrations are contained in Table 5 of this example.

hT2R9 = hT2R9 (Homo sapiens (Human), UniProt Q9NYW1); test: hT2R panel inhibition, transient HEK293 G16g44, agonist Ofloxacin 1 mM; assay type: cell-based; details: HEK293, compound at 25 μM
Sequence of hT2R9 (Q9NYW1 whole entry): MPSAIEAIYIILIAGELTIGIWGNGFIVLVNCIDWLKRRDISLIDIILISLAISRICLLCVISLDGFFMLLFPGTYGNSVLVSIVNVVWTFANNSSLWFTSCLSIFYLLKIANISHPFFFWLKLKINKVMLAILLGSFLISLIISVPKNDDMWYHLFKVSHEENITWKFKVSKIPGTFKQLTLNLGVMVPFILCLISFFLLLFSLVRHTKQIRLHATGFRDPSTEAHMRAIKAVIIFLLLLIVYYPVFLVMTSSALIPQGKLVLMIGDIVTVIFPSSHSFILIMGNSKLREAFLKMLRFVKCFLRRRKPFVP
Procedure, shortened: as §1

hT2R13 = hT2R13 (Homo sapiens (Human), UniProt Q9NYV9); test: hT2R panel inhibition, transient HEK293 G16g44, agonist Oxyphenonium 1 mM; assay type: cell-based; details: HEK293, compound at 25 μM
Sequence of hT2R13 (Q9NYV9 whole entry): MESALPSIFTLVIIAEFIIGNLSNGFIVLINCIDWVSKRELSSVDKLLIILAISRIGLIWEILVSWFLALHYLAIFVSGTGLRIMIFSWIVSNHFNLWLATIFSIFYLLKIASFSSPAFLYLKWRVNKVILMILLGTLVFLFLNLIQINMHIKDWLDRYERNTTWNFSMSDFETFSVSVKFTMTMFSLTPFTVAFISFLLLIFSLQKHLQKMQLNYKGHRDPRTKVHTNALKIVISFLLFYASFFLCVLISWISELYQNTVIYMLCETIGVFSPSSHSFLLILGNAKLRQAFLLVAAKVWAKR
Procedure, shortened: as §1

hT2R14 [6] = biological target: T2, hT2R14; test: hT2R panel inhibition, transient HEK293 G16g44, agonist Aristolochic Acid 2 μM; assay type: cell-based; details: HEK293, compound at 25 μM
Procedure, shortened: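 Agonist challenge was at EC80, with 0.5 mM andrographolide on hT2R8 and 2 μM aristolochic acid on hT2R14. Inhibition was measured in functional assays in HEK293 cells that stably carry the promiscuous G protein G16g44 and were transiently transfected with the individual receptor.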

hT2R16 = hT2R16 (Homo sapiens (Human), UniProt Q9NYV7); test: hT2R panel inhibition, transient HEK293 G16g44, agonist Salicin 1 mM; assay type: cell-based; details: HEK293, compound at 25 μM
Sequence of hT2R16 (Q9NYV7 whole entry): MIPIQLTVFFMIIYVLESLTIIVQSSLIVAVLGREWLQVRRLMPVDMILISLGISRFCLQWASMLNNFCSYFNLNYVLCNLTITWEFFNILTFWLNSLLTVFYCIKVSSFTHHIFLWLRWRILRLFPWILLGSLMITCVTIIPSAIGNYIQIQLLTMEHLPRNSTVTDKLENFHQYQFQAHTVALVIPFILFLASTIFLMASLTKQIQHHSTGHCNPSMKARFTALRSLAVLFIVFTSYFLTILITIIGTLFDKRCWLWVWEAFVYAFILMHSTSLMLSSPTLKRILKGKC
Procedure, shortened: as §1

hT2R51 = hT2R51 (Homo sapiens (Human), UniProt P59533); test: hT2R panel inhibition, transient HEK293 G16g44, agonist Prop 2.5 μM; assay type: cell-based; details: HEK293, compound at 25 μM
Sequence of hT2R51 (P59533 whole entry): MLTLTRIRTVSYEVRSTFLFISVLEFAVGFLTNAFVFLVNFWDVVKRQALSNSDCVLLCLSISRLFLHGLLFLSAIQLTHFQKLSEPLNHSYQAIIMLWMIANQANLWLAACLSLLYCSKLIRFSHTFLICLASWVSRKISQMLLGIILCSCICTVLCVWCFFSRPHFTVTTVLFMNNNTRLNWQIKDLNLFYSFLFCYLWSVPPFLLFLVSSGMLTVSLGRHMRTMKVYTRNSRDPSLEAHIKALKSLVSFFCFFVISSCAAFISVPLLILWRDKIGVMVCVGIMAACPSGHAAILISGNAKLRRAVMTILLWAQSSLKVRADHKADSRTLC
Procedure, shortened: as §1

hT2R61 = hT2R61 (Homo sapiens (Human), UniProt P59537); test: hT2R panel inhibition, transient HEK293 G16g44, agonist Aristolochic Acid 25 nM; assay type: cell-based; details: HEK293, compound at 25 μM
Sequence of hT2R61 (P59537 whole entry): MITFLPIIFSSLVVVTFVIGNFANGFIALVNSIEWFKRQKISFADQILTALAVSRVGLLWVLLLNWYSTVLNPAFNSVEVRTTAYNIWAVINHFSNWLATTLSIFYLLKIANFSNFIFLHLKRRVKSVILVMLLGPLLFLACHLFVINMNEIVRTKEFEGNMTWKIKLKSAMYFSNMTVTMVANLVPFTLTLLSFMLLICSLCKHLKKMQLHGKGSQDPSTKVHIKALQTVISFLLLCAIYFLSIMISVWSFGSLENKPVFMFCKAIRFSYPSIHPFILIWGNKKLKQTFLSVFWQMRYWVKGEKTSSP
Procedure, shortened: as §1

hT2R75 = hT2R75 (Homo sapiens (Human), UniProt P59540); test: hT2R panel inhibition, transient HEK293 G16g44, agonist Strychnine 1 μM; assay type: cell-based; details: HEK293, read-out: screening result against bitter receptor 75, compound at 25 μM; receptor activated to EC80 with the corresponding agonist
Sequence of hT2R75 (P59540 whole entry): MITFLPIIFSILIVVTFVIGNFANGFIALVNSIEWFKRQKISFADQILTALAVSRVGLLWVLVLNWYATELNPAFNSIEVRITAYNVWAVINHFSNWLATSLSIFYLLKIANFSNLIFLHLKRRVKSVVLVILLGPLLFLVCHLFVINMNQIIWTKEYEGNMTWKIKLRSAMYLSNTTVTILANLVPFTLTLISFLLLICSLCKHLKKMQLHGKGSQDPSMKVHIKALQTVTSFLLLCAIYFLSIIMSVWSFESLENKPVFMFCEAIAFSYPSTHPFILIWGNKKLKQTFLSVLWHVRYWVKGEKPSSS

hT2R3 = hT2R3 (Homo sapiens (Human), UniProt Q9NYW6); test: hT2R panel inhibition, transient HEK293 G16g44, agonist Chloroquine pH6.5 50 μM; assay type: cell-based; details: HEK293, compound at 25 μM; receptor activated to EC80 with agonist; read-out: inhibition of bitter receptor 3
Sequence of hT2R3 (Q9NYW6 whole entry): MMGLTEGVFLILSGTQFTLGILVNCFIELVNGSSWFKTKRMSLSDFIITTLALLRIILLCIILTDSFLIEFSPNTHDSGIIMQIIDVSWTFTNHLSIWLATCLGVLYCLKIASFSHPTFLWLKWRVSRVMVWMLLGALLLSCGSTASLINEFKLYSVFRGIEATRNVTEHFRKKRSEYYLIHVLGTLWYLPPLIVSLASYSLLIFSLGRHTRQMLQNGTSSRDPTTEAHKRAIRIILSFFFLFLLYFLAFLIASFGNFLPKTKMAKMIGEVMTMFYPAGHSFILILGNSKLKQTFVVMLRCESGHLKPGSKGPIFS
Procedure, shortened: as §1

hT2R10 = hT2R10 (Homo sapiens (Human), UniProt Q9NYW0); test: hT2R panel inhibition, transient HEK293 G16g44, agonist Strychnine 50 μM; assay type: cell-based; details: HEK293, read-out: inhibition of bitter receptor 10, compound at 25 μM; receptor activated to EC80 with agonist
Sequence of hT2R10 (Q9NYW0 whole entry): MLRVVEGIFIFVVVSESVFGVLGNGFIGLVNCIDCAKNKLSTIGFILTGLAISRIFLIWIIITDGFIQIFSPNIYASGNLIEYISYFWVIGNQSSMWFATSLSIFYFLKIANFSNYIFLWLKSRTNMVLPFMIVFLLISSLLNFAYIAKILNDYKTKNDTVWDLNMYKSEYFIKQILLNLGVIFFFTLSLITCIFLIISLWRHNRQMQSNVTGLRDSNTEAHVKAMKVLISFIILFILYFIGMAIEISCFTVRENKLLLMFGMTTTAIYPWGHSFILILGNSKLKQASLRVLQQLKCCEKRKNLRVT

hT2R44 = test: hT2R panel inhibition, transient HEK293 G16g44, agonist Denatonium 0.5 μM; assay type: cell-based, human; details: compound at 25 μM; receptor activated to EC80 with agonist
Procedure, shortened: as §1

hT2R54 = test: hT2R panel inhibition, transient HEK293 G16g44, agonist Ranitidine 5 mM; assay type: cell-based, human; details: compound at 25 μM; receptor activated to EC80 with agonist
Procedure, shortened: as §1

hT2R55 = test: hT2R panel inhibition, transient HEK293 G16g44, agonist Cinchonine 150 μM; assay type: cell-based, human; details: compound at 25 μM; receptor activated to EC80 with agonist
Procedure, shortened: as §1

hT2R63 = test: hT2R panel inhibition, transient HEK293 G16g44, agonist Caffeine 1 mM or Andrographolide 100 μM; assay type: cell-based, human; details: compound at 25 μM; receptor activated to EC80 with agonist
Procedure, shortened: as §1

hT2R64 = hT2R64 (Homo sapiens (Human), UniProt P59538); test: hT2R panel inhibition, transient HEK293 G16g44, agonist Aristolochic Acid 1 μM; assay type: cell-based; details: HEK293, compound at 25 μM; receptor activated to EC80 with agonist; read-out: inhibition of bitter receptor 64
Sequence of hT2R64 (P59538 whole entry): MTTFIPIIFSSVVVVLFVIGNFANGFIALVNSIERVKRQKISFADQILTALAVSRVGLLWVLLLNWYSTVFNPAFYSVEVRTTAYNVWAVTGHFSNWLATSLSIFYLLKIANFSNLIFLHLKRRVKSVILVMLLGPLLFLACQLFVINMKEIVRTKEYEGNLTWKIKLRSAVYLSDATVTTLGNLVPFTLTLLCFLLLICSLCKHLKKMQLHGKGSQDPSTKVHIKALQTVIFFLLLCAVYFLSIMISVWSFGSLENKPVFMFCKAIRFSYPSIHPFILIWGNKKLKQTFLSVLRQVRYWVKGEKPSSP
Procedure, shortened: as §1

hT2R65 = test: hT2R panel inhibition, transient HEK293 G16g44, agonist Oleuropein 1 mM; assay type: cell-based, human; details: compound at 25 μM; receptor activated to EC80 with agonist
Procedure, shortened: as §1

hT2R67 = test: hT2R panel inhibition, transient HEK293 G16g44, agonist Andrographolide 5 μM; assay type: cell-based, human; details: compound at 25 μM; receptor activated to EC80 with agonist
Procedure, shortened: as §1

hT2R71 = hT2R71 (Homo sapiens (Human), UniProt P59536); test: hT2R panel inhibition, transient HEK293 G16g44, agonist Picric Acid 10 μM; assay type: cell-based; details: HEK293, compound at 25 μM; receptor activated to EC80 with agonist; read-out: inhibition of bitter receptor 71
Sequence of hT2R71 (P59536 whole entry): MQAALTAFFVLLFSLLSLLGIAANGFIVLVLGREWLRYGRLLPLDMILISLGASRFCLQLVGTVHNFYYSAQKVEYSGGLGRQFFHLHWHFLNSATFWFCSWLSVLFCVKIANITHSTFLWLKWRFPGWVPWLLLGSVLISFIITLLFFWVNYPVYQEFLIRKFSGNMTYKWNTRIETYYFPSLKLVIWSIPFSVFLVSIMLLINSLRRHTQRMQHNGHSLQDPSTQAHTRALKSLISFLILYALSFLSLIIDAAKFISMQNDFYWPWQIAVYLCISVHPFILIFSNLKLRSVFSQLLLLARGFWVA
Procedure, shortened: as §1

hT2R8 [7] = biological target: T1, hT2R8; details: compared with taster hT2R43-W35 and hT2R44-W35 alleles, FIG. 6
Text: FIG. 6 is a plot of receptor activity as a function of log of the saccharin concentration.
Pronin et al., Curr. Biol. 17: 1403-8 (2007). Five individuals with the “taster” alleles (hT2R43-W35 and/or hT2R44-W35) and five with the “non-taster” alleles (hT2R43-S35 and hT2R44-R35) were selected based on genotyping analysis. Each subject was presented with 6 pairs of solutions and asked to determine which of the samples in a pair tasted more bitter.

Cc1noc(C)c1Cn1cc(N2C(=O)CN(Cc3cccc(O)c3)C2=O)cn1 [Example 10-10, 3-(1-((3,5-dimethylisoxazol-4-yl)methyl)-1H-pyrazol-4-yl)-1-(3-hydroxybenzyl)imidazolidine-2,4-dione]
IC50 (hT2R8 [1]; Table 6, read-out: HTS assay IC50): 0.02 to 0.04 µM | IC50 (hT2R8 [1]; table after Example 10-97, read-out: hT2R8 IC50): 0.026 µM | IC50 (hT2R8 [1]; unit uM, read-out: IC50 on hT2R08 bitter receptor): 0.035 µM | Selected as more bitter: +other ([2]; sample with 10-10): 2 | Selected as more bitter: 10-8 ([2]; sample with control blocker 10-8): 14 | Selected as bitterer: With antagonists [3]: 2 | Selected as bitterer: Without antagonists [3]: 14

COc1ccc(CN(Cc2ccccc2)S(=O)(=O)c2ccc(C(=O)O)cc2)cc1 [Example 5-1, 4-(N-benzyl-N-(4-methoxybenzyl)sulfamoyl)benzoic acid]
IC50 (hT2R14 [4]): 0.22 µM | inhibition at 25 µM (hT2R4; receptor activated to EC80 with the corresponding agonist, class symbols, read-out: screening result against bitter receptor 4): 20 to 40% | inhibition at 25 µM (hT2R5; receptor activated to EC80 with the corresponding agonist, read-out: screening result against bitter receptor 5): 20 to 40% | inhibition at 25 µM (hT2R7; receptor activated to EC80 with the corresponding agonist, read-out: screening result against bitter receptor 7): 40 to 60% | inhibition at 25 µM (hT2R8 [5]; receptor activated to EC80 with the corresponding agonist, read-out: screening result against bitter receptor 8): 20 to 40% | inhibition at 25 µM (hT2R9; receptor activated to EC80 with the corresponding agonist, read-out: screening result against bitter receptor 9): 20 to 40% | inhibition at 25 µM (hT2R13; receptor activated to EC80 with the corresponding agonist, read-out: screening result against bitter receptor 13): 20 to 40% | inhibition at 25 µM (hT2R14 [6]; receptor activated to EC80 with the corresponding agonist, read-out: screening result against bitter receptor 14): > 80% | inhibition at 25 µM (hT2R16; receptor activated to EC80 with the corresponding agonist, read-out: screening result against bitter receptor 16): 40 to 60% | inhibition at 25 µM (hT2R51; receptor activated to EC80 with the corresponding agonist, read-out: screening result against bitter receptor 51): 60 to 80% | inhibition at 25 µM (hT2R61; receptor activated to EC80 with the corresponding agonist, read-out: screening result against bitter receptor 61): > 80% | inhibition at 25 µM (hT2R75): 20 to 40% | melting point: 161 to 163 °C

CC(C)Oc1ccc(CN(Cc2ccccc2)S(=O)(=O)c2ccc(C(=O)O)cc2)cc1 [Example 5-110, 4-(N-benzyl-N-(4-isopropoxybenzyl)sulfamoyl)benzoic acid]
inhibition at 25 µM (hT2R3): 40 to 60% | inhibition at 25 µM (hT2R4; receptor activated to EC80 with agonist, read-out: inhibition of bitter receptor 4): 60 to 80% | inhibition at 25 µM (hT2R5; receptor activated to EC80 with agonist, read-out: inhibition of bitter receptor 5): 20 to 40% | inhibition at 25 µM (hT2R7; receptor activated to EC80 with agonist, read-out: inhibition of bitter receptor 7): 40 to 60% | inhibition at 25 µM (hT2R8 [5]; receptor activated to EC80 with agonist, read-out: inhibition of bitter receptor 8): 20 to 40% | inhibition at 25 µM (hT2R9; receptor activated to EC80 with agonist, read-out: inhibition of bitter receptor 9): 20 to 40% | inhibition at 25 µM (hT2R10): 40 to 60% | inhibition at 25 µM (hT2R13; receptor activated to EC80 with agonist, read-out: inhibition of bitter receptor 13): 20 to 40% | inhibition at 25 µM (hT2R14 [6]; receptor activated to EC80 with agonist, read-out: inhibition of bitter receptor 14): > 80% | inhibition at 25 µM (hT2R16; receptor activated to EC80 with agonist, read-out: inhibition of bitter receptor 16): 20 to 40% | inhibition of bitter receptor 44 (hT2R44): +++ (60% to 80% inhibition = +++) | inhibition at 25 µM (hT2R51; receptor activated to EC80 with agonist, read-out: inhibition of bitter receptor 51): 40 to 60% | inhibition of bitter receptor 54 (hT2R54): + (20% to 40% inhibition = +) | inhibition of bitter receptor 55 (hT2R55): ++++ (80% or greater inhibition = ++++) | inhibition at 25 µM (hT2R61; receptor activated to EC80 with agonist, read-out: inhibition of bitter receptor 61): > 80% | inhibition of bitter receptor 63 (hT2R63): +++ (60% to 80% inhibition = +++) | inhibition at 25 µM (hT2R64): 60 to 80% | inhibition of bitter receptor 65 (hT2R65): +++ (60% to 80% inhibition = +++) | inhibition of bitter receptor 67 (hT2R67): + (20% to 40% inhibition = +) | inhibition at 25 µM (hT2R71): 60 to 80%

O=C1NS(=O)(=O)c2ccccc21 [saccharin]
responsiveness of hT2R8 to saccharin (hT2R8 [7]): less responsive
